Earlier results in patent US20250114486A1, “MARKED FATTY ACID DERIVATIVE, PRECURSOR COMPOUND THEREOF, AND USE THEREOF IN CONTRAST AGENT” (BEIJING NORMAL UNIVERSITY, priority 2022, published 2025).
Read-outs that look alike come from different tables or passages of the source.

Conditions: rats, reference 4, cited from earlier work

SMILES: CC(CCCCCCCCCCCCc1ccc([123I])cc1)CC(=O)O (centres unmarked) [[^123I]BMIPP]
- Heart-to-Lungs ratio (30 min after injection): 3.16
- Heart-to-Blood ratio (30 min post-injection): 2.27
- absolute myocardial uptake value (30 min post-injection): 3.63 % ID/g
- Heart-to-Liver ratio (60 min after injection): 2.22
- Heart-to-Lungs ratio (60 min after injection): 3.52
- Heart-to-Blood ratio (60 min post-injection): 2.51
- absolute myocardial uptake value (60 min post-injection): 4.26 % ID/g
- Heart-to-Liver ratio (240 min after injection): 2.39
- Heart-to-Lungs ratio (240 min after injection): 2.49
- Heart-to-Blood ratio (240 min post-injection): 2.01
- absolute myocardial uptake value (240 min post-injection): 2.27 % ID/g
